Experiment: xn = mol fraction of the nth substance listed
Conditions: 101 kPa, Liquid; for viscosity: Capillary tube (Ostwald / Ubbelohde) method

CCCCCCCCC [nonane] + COC(C)(C)C
Conditions | mass density [kg/m3] | viscosity [mPa·s]
308.15 K, x2 = 0 | 706.011 | –
308.15 K, x2 = 0.1085 | 706.97 | –
308.15 K, x2 = 0.1722 | 707.6 | –
308.15 K, x2 = 0.3037 | 709.03 | –
308.15 K, x2 = 0.4011 | 710.36 | –
308.15 K, x2 = 0.5008 | 711.93 | –
308.15 K, x2 = 0.6005 | 713.77 | –
308.15 K, x2 = 0.6992 | 715.84 | –
308.15 K, x2 = 0.6998 | – | 0.386
308.15 K, x2 = 0.7975 | – | 0.357
308.15 K, x2 = 0.8005 | 718.35 | –
308.15 K, x2 = 0.8925 | 721.04 | –
313.15 K, x2 = 0 | 702.076 | 0.555
313.15 K, x2 = 0.1006 | – | 0.529
313.15 K, x2 = 0.1085 | 702.96 | –
313.15 K, x2 = 0.1722 | 703.52 | –
313.15 K, x2 = 0.2026 | – | 0.498
313.15 K, x2 = 0.2995 | – | 0.472
313.15 K, x2 = 0.3037 | 704.82 | –
313.15 K, x2 = 0.4011 | 706.05 | –
313.15 K, x2 = 0.4045 | – | 0.446
313.15 K, x2 = 0.5003 | – | 0.421
313.15 K, x2 = 0.5008 | 707.49 | –
313.15 K, x2 = 0.6005 | 709.18 | –
313.15 K, x2 = 0.6035 | – | 0.391
313.15 K, x2 = 0.6992 | 711.09 | –
313.15 K, x2 = 0.6998 | – | 0.367
313.15 K, x2 = 0.8005 | 713.41 | –
313.15 K, x2 = 0.8925 | 715.91 | –
318.15 K, x2 = 0 | 698.124 | 0.522
318.15 K, x2 = 0.1006 | – | 0.498
318.15 K, x2 = 0.1085 | 698.89 | –
318.15 K, x2 = 0.1722 | 699.42 | –
318.15 K, x2 = 0.2026 | – | 0.471
318.15 K, x2 = 0.2995 | – | 0.446
318.15 K, x2 = 0.3037 | 700.6 | –
318.15 K, x2 = 0.4011 | 701.71 | –
318.15 K, x2 = 0.4045 | – | 0.422
318.15 K, x2 = 0.5003 | – | 0.401
318.15 K, x2 = 0.5008 | 703.01 | –
318.15 K, x2 = 0.6005 | 704.56 | –
318.15 K, x2 = 0.6035 | – | 0.372
318.15 K, x2 = 0.6992 | 706.3 | –
318.15 K, x2 = 0.6998 | – | 0.348
318.15 K, x2 = 0.8005 | 708.45 | –
318.15 K, x2 = 0.8925 | 710.72 | –
323.15 K, x2 = 0 | 694.151 | 0.493
323.15 K, x2 = 0.1006 | – | 0.47
323.15 K, x2 = 0.1085 | 694.83 | –
323.15 K, x2 = 0.1722 | 695.3 | –
323.15 K, x2 = 0.2026 | – | 0.446
323.15 K, x2 = 0.2995 | – | 0.423
323.15 K, x2 = 0.3037 | 696.34 | –
323.15 K, x2 = 0.4011 | 697.34 | –
323.15 K, x2 = 0.4045 | – | 0.402
323.15 K, x2 = 0.5003 | – | 0.382
323.15 K, x2 = 0.5008 | 698.51 | –
323.15 K, x2 = 0.6005 | 699.89 | –
323.15 K, x2 = 0.6035 | – | 0.354
323.15 K, x2 = 0.6992 | 701.46 | –
323.15 K, x2 = 0.8005 | 703.35 | –
323.15 K, x2 = 0.8925 | 705.48 | –
328.15 K, x2 = 0 | 690.165 | 0.466
328.15 K, x2 = 0.1006 | – | 0.445
328.15 K, x2 = 0.1085 | 690.74 | –
328.15 K, x2 = 0.1722 | 691.16 | –
328.15 K, x2 = 0.2026 | – | 0.424
328.15 K, x2 = 0.2995 | – | 0.402
328.15 K, x2 = 0.3037 | 692.06 | –
328.15 K, x2 = 0.4011 | 692.94 | –
328.15 K, x2 = 0.4045 | – | 0.383
328.15 K, x2 = 0.5003 | – | 0.364
328.15 K, x2 = 0.5008 | 693.97 | –
328.15 K, x2 = 0.6005 | 695.19 | –
328.15 K, x2 = 0.6992 | 696.59 | –
328.15 K, x2 = 0.8005 | 698.27 | –
333.15 K, x2 = 0 | 686.154 | 0.442
333.15 K, x2 = 0.1006 | – | 0.423
333.15 K, x2 = 0.1085 | 686.64 | –
333.15 K, x2 = 0.1722 | 686.99 | –
333.15 K, x2 = 0.2026 | – | 0.404
333.15 K, x2 = 0.2995 | – | 0.383
333.15 K, x2 = 0.3037 | 687.76 | –
333.15 K, x2 = 0.4011 | 688.5 | –
333.15 K, x2 = 0.4045 | – | 0.365
333.15 K, x2 = 0.5003 | – | 0.347
333.15 K, x2 = 0.5008 | 689.39 | –
333.15 K, x2 = 0.6005 | 690.45 | –
333.15 K, x2 = 0.6992 | 691.66 | –
333.15 K, x2 = 0.8005 | 693.14 | –
338.15 K, x2 = 0 | 682.116 | 0.42
338.15 K, x2 = 0.1006 | – | 0.402
338.15 K, x2 = 0.1085 | 682.52 | –
338.15 K, x2 = 0.1722 | 682.79 | –
338.15 K, x2 = 0.2026 | – | 0.386
338.15 K, x2 = 0.2995 | – | 0.366
338.15 K, x2 = 0.3037 | 683.42 | –
338.15 K, x2 = 0.4011 | 684.02 | –
338.15 K, x2 = 0.4045 | – | 0.348
338.15 K, x2 = 0.5008 | 684.76 | –
338.15 K, x2 = 0.6005 | 685.66 | –
338.15 K, x2 = 0.6992 | 686.68 | –
338.15 K, x2 = 0.8005 | 687.95 | –
343.15 K, x2 = 0 | 678.06 | 0.399
343.15 K, x2 = 0.1006 | – | 0.383
343.15 K, x2 = 0.1085 | 678.37 | –
343.15 K, x2 = 0.1722 | 678.57 | –
343.15 K, x2 = 0.2026 | – | 0.368
343.15 K, x2 = 0.2995 | – | 0.351
343.15 K, x2 = 0.3037 | 679.05 | –
343.15 K, x2 = 0.4011 | 679.52 | –
343.15 K, x2 = 0.5008 | 680.11 | –
343.15 K, x2 = 0.6005 | 680.83 | –
348.15 K, x2 = 0 | 673.979 | 0.38
348.15 K, x2 = 0.1006 | – | 0.366
348.15 K, x2 = 0.1085 | 674.19 | –
348.15 K, x2 = 0.1722 | 674.31 | –
348.15 K, x2 = 0.2026 | – | 0.352
348.15 K, x2 = 0.3037 | 674.64 | –
348.15 K, x2 = 0.4011 | 674.98 | –
353.15 K, x2 = 0 | 669.872 | 0.362
353.15 K, x2 = 0.1006 | – | 0.35
353.15 K, x2 = 0.1085 | 669.95 | –
353.15 K, x2 = 0.1722 | 670.02 | –
353.15 K, x2 = 0.2026 | – | 0.338
353.15 K, x2 = 0.3037 | 670.19 | –
353.15 K, x2 = 0.4011 | 670.38 | –
358.15 K, x2 = 0 | 665.73 | 0.346
358.15 K, x2 = 0.1006 | – | 0.335
358.15 K, x2 = 0.1085 | 665.71 | –
358.15 K, x2 = 0.1722 | 665.7 | –
358.15 K, x2 = 0.3037 | 665.7 | –
358.15 K, x2 = 0.4011 | 665.75 | –
363.15 K, x2 = 0 | 661.557 | –
363.16 K, x2 = 0.1085 | 661.43 | –
363.16 K, x2 = 0.1722 | 661.33 | –
363.16 K, x2 = 0.3037 | 661.17 | –

— the NIST ThermoML archive (doi:10.1021/je700428f)
